Experimental data: ChEMBL document CHEMBL4251728, “Toll-like Receptors for the Treatment of Autoimmune, Inflammation, and Infectious Diseases” (ACS Med Chem Lett, 2018)

Each molecule was assayed against T1, Toll-like receptor 7 (Homo sapiens, UniProt Q9NYK1) (assay: Antagonist activity at TLR7 in HEK cells assessed as decrease in R848-induced NF-kappaB activation incubated for 30 mins followed by R848 addition measured after 5 hrs by steady-Glo reagent based assay).
T1 sequence (Q9NYK1 whole entry): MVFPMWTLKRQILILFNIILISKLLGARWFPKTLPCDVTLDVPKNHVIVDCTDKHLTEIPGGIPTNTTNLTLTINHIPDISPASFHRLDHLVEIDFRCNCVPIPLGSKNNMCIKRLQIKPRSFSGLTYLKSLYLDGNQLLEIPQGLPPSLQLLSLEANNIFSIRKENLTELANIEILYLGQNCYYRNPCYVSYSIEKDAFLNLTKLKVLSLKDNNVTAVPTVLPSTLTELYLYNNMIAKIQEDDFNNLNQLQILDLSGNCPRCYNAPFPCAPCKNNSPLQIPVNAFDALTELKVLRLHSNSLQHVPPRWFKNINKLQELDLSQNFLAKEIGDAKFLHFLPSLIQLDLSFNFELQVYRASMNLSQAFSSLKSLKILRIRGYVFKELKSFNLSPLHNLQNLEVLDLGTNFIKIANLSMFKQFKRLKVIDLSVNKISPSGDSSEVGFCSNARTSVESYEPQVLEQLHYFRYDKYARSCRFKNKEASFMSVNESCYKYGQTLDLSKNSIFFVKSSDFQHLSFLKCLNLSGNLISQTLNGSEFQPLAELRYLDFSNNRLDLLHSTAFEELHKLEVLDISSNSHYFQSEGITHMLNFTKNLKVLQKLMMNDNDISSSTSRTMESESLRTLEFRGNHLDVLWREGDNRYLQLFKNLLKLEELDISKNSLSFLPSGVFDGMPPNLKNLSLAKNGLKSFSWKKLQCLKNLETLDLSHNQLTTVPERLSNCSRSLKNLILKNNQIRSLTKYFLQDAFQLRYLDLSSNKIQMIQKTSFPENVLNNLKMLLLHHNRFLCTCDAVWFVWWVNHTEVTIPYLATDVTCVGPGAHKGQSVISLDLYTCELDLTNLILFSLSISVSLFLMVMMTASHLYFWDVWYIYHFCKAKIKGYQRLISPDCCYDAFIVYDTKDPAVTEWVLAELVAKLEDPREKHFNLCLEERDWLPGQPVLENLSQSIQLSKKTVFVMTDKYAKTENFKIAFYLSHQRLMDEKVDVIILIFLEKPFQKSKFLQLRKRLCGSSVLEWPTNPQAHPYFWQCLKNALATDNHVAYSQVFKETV
Type: cell-based

SMILES	IC50 [nM]
C[C@@H]1C[C@@H](c2ccc(C(F)(F)F)c3ncccc23)CN(C(=O)CCn2cccn2)C1	> 20000
C[C@@H]1C[C@H](c2ccc(C#N)c3ncccc23)CN(C(=O)CC2CCN(C)CC2)C1	< 1000
C[C@@H]1C[C@H](c2ccc(C#N)c3ncccc23)CN(C(=O)CC2C3CC2CN(C)C3)C1 (some centres not stated)	< 1000
Cc1ccc([C@H]2C[C@@H](C)CN(C(=O)CC3CCN(C)CC3)C2)c2cccnc12	< 1000
C[C@@H]1C[C@H](N)C[C@@H](c2ccc(C(F)(F)F)c3nccnc23)C1	< 1000
C[C@@H]1C[C@H](c2ccc(C#N)c3ncccc23)CN(C(=O)NC2CCN(C)CC2)C1	< 1000
C[C@H]1C[C@@H](NC(=O)[C@@H](O)C(C)(C)C)C[C@H](c2ccc(C(F)(F)F)c3nccnc23)C1	< 1000
C[C@@H]1C[C@H](c2ccc(C#N)c3ncccc23)CN(C(=O)CN2CCN(C)CC2)C1	< 1000
C[C@@H]1C[C@H](N)C[C@H](c2ccc(C(F)(F)F)c3nccnc23)C1	< 1000
C[C@@H]1C[C@H](c2ccc(C(F)(F)F)c3ncccc23)CN(C(=O)NC2CC2)C1	1000 to 20000
C[C@@H]1C[C@@H](c2ccc(C#N)c3ncccc23)CN(C(=O)C[C@H]2[C@@H]3CNC[C@@H]32)C1	< 1000
CC1CC(c2ccc(C#N)c3ncccc23)CN(CC2CCN(C)C2)C1 (configuration not stated)	< 1000
